Here are results for one molecule from patent US20210246128A1, “BICYCLE TOPOISOMERASE I INHIBITING COMPOUNDS, PROCESS FOR PREPARATION AND USE THEREOF” (Council of Scientific & Industrial Research, priority 2018, published 2021).

Molecules are shown by their SMILES. Read-outs that look alike come from different tables or passages of the source.

Data set [1] in a line: Plasma stability assay. Type of data set: in vitro ADME. Conditions: pH 7.4, 37° C., 1 μM.
For data set [2], the target named is T1, endogenous TopI from the whole cell extracts of human breast adenocarcinoma (MCF7) cell (Homo sapiens, UniProt P11387).
T1 construct: TopI enzyme in the extract is conserved in its native structure among a plethora of other cellular proteins; endogenous in cells; host or cells: MCF7 whole cell extract
T1 sequence (P11387 1-765): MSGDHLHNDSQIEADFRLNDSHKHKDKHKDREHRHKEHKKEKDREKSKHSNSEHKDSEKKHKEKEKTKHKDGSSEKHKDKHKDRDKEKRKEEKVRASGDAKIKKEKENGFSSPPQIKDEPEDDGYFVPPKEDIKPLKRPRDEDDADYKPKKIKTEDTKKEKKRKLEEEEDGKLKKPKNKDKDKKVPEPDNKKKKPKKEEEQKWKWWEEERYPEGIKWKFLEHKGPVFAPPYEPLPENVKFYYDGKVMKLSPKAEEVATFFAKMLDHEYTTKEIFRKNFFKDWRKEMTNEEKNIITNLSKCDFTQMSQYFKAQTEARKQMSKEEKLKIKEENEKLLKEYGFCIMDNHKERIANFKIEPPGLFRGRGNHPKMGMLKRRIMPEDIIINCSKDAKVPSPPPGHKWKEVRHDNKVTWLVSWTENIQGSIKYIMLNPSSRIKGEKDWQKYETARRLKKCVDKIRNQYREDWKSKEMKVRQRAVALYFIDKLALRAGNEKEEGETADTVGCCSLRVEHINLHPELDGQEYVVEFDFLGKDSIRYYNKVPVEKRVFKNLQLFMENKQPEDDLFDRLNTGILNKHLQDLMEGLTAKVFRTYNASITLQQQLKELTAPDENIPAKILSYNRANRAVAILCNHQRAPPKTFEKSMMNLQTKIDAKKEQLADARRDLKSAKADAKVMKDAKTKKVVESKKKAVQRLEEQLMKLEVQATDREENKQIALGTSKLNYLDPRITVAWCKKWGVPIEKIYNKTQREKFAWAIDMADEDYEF
The data set is described as follows: Plasmid DNA relaxation assay with MCF7 cell lysates (ex vivo). The data set is classed as biochemical. As to conditions: MCF7 cell lysates as source of TopI. The protocol: Human ToPI Inhibition in Plasmid DNA Relaxation Assays with Recombinant TopI (In Vitro) or MCF7 Cell Lysates (Ex Vivo)
Relaxation of supercoiled pBSSK(^+) DNA with recombinant human TopI (HTopI) at a molar ratio of 3:1 at 37° C. for 30 minutes was performed
cellular extracts were utilized as a source of TopI (ex vivo) in plasmid DNA relaxation assays. TopI enzyme in the extract is conserved in its native structure among a plethora of other cellular proteins.

Data set [3] deals with T2, human TopI-DNA cleavage complexes (TopIcc) (Homo sapiens, UniProt P11387).
T2 sequence (P11387 1-765): T1 sequence (P11387 1-765)
The experiment in a line: Plasmid DNA cleavage assay. Type of data set: biochemical. As to conditions: compared with CPT, FIG. 3 and 4. The protocol:
Cleavage reaction and electrophoresis in agarose gel were performed as described in B. Kundu, J. Med. Chem. 2019, 62, 3428-3446. Lane 1 comprises 50 fmol of pBluescript (SK^+) supercoiled DNA. Lanes 2-9 are same as lane 1 but incubated with equal amounts (100 fmol) of HTopI at the indicated concentration of CPT or compound 24 or only DMSO.
The mechanism of TopI inhibition with compound 24 in the plasmid DNA cleavage assays was investigated.

Data set [4] is described as follows: Caco-2 permeability (21 day culture of Caco-2 cell monolayer). As to conditions: human; for recovery at 120 min, 10 μM: Caco-2, pH 7.4, Caco-2. The data set is classed as in vitro ADME. In short, it runs like this:
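Caco-2 monolayers grown 21 days, used when TEER >230 ohm·cm2; compound at 10 μM final in HBSS pH 7.4 dosed apical or basal, receiver HBSS with 2% BSA, sampled at 120 min at 37° C. Bidirectional transport quantified by LC-MS/MS against single-point calibration.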

For orientation: IC50 means the concentration needed to halve the response being measured. A lower IC50 goes with inhibition by little substance. As a reminder, the efflux ratio is the permeability from basolateral to apical divided by that in the opposite direction, in the common usage. As to `Nc1ccc(-c2ccc3ncc(-c4nnco4)c(NCCCn4ccnc4)c3c2)cn1` [Compound 24, N-(3-(1H-imidazol-1-yl)propyl)-6-(6-aminopyridin-3-yl)-3-(1,3,4-oxadiazol-2-yl)quinolin-4-amine], the “Mean % remaining at 2 hrs in human Plasma” value in data set [1] was 84.18%. Inhibition in data set [2] was half-maximal at 1.83 µM (IC50). Further, the “stabilisation/trapping of TopI-DNA cleavage complexes (TopIcc)” value in data set [3] was “capable of stabilising TopIcc formation like CPT”. Also, the efflux ratio at 120 min, 10 μM in data set [4] (Caco-2, pH 7.4) amounted to 4.54. Also, the recovery at 120 min, 10 μM in data set [4] (read-out: A to B % Recovery) was 77.3%; in data set [4] (read-out: B to A % Recovery) it was 77.7%. Further, the Papp A→B at 120 min, 10 μM in data set [4] (pH 7.4, Caco-2, 10 μM, 120 min, read-out: Papp Apical to Basal) was determined as 6.47 ×10⁻⁶ cm/s. Also, the Papp B→A at 120 min, 10 μM in data set [4] (pH 7.4, Caco-2, 10 μM, 120 min, read-out: Papp Basal to Apical) was found to be 27.4 ×10⁻⁶ cm/s.
